The source of these data is patent US10578622B2, “Sensors for detecting citrate, and method of detecting citrate using the same” (KOREA INSTITUTE OF SCIENCE AND TECHNOLOGY, priority 2017, dated 2020).

Series [1] in a line: Photophysical properties of the citrate detection sensor in the presence and absence of citrate. It counts as physicochemical. As for the experimental part: Meanwhile, referring to FIG. 5, it can be seen that the citrate detection sensor not subjected to reaction with citrate expresses (blue) fluorescence while emitting weak fluorescence at 346 nm and 458 nm. On the contrary, when citrate is added to the citrate detection sensor including 2 μM of ARBD in the presence of 10 mM of 4-(2-hydroxyethyl)-1-piperazineethane sulfonic acid (HEPES) buffer (2 vol % DMSO) at pH 7.4, it can be seen that strong fluorescence appears at 548 nm together with a dramatic color change from blue to green. […] However, such a change in fluorescence is differentiated preferentially by visualization.

The nature of series [2]: Job plot and reaction kinetics of the sensor including ARBD with citrate. As to conditions: reaction with citrate; plot of ln(Fmax−F)/Fmax vs time. An excerpt: To understand the bonding behavior in the reaction between the citrate detection sensor including ARBD and citrate, the reaction was investigated by using the Job plot.
It can be seen from FIG. 3 that the maximum absorption intensity appears at a molar fraction of 0.5. Thus, it can be seen that a 1:1 complex is formed during the reaction of the citrate detection sensor with citrate. In this case, the reaction kinetics may be expressed by −kt=ln(Fmax−F)/Fmax (wherein k=rate constant, and ‘F’ and ‘Fmax’ represent the fluorescence intensity at time ‘t’). In addition, the maximum intensity reaction value accomplished after the completion of the reaction was calculated by using the plot of ‘ln(Fmax−F)/Fmax vs time’ as shown in FIG. 4.

Series [3] in a line: Fluorescence intensity as a function of time and pH in the presence of citrate. In kind it is physicochemical. On the procedure:
Meanwhile, FIG. 6A to FIG. 6C show a graph illustrating a change in fluorescence intensity of the citrate detection sensor as a function of time in the presence of different concentrations of citrate (0-0.9 μM), a graph illustrating fluorescence emission intensity of ARBD and citrate at different pH values and a fluorescence image thereof, respectively.
When optimizing the determination condition in FIG. 6A, it can be seen that the maximum value of fluorescence intensity is accomplished within about 15 minutes. […] Thus, it can be seen that when citrate is introduced to the citrate detection sensor, fluorescence enhancement may be varied with pH.

The nature of series [4]: High-sensitivity detection of citrate (UV-Vis absorption and fluorescence titration). The note with it: pH 7.4, 10 mM HEPES (2 vol % DMSO). As for the experimental part: The initial citrate tracking ability of the citrate detection sensor including ARBD was evaluated by using UV-Vis absorption spectrometry using ARBD at pH 7.4 in the presence of 10 mM of HEPES buffer solution (2 vol % DMSO). Referring to FIG. 7A to FIG. 7C, it is possible to determine a change in fluorescence spectrum of ARBD when adding citrate at a concentration increasing linearly. […] The absorption intensity at 346 nm is decreased whenever citrate is added and a new peak position appears at 400 nm. In addition, as shown in FIG. 7A to FIG. 7C, it can be seen that an increase in concentration of citrate affects both the fluorescence intensity and the fluorescence wavelength. Further, it can be seen that when the concentration of citrate is increased from 0 to 800 nM for the citrate detection sensor including 2 μM of ARBD at pH 7.4 in the presence of 10 mM of HEPES buffer solution (2 vol % DMSO), the maximum fluorescence intensity is increased linearly to 548 nm. It can be also seen that when the concentration of citrate is increased to 950 nM, the peak at 548 nm is increased linearly while causing no change in wavelength.

Series [5] can be described thus: Selectivity and interference of the citrate detection sensor. On the procedure:
The citrate detection sensor was used to test the selectivity and interference capability to the related similar species for the detection of the other biological carboxylate and citrate. For this test, 1 μM of citrate and 0.5 mM of the other ions were added ((1) sensor, (2) citrate, (3) fumarate, (4) benzoate, (5) glutamate, (6) succinate, (7) malonate, (8) oxalate, (9) acetate, (10) phosphate, (11) sulfite, and (12) sulfate).
Referring to FIG. 8C, it can be seen that even when the other ionic substances have a concentration at least 500 times higher than the concentration of citrate, the citrate detection sensor is reactive selectively with citrate without any interference under high sensitivity. In addition, since it is well known that boronate is a diol sensor, selectivity was also determined for the other materials having a diol moiety, such as hydrogen peroxide (H2O2), glucose, fructose, sucrose, dopamine species, or the like. […] Although the two analytes undergo a reaction in response to the fluorescence intensity, it can be seen that citrate emits green fluorescence and H2O2 emits blue fluorescence. Thus, it can be seen that since only citrate emits green fluorescence in a biological sample at a concentration of ‘μM’ scale, it is possible to detect citrate with ease by the naked eyes through the citrate detection sensor.

The test system of a further series is PC3 cells. Kind of series: Fluorescence expression of the citrate detection sensor in living PC3 cells. In kind it is cell-based. As to conditions: ARBD 2 μM, cultured 30 minutes. On the procedure:
The citrate detection sensor was evaluated in terms of its probe capability in living cells (PC3). […] Particularly, after the citrate sensor including ARBD (2 μM) was cultured for 30 minutes, the image in PC3 cells was observed.
FIG. 9A to FIG. 9C show the fluorescence expressed generally when ARBD is introduced to prostate cancer cells. The image (FIG. 9C) of the expressed fluorescence (FIG. 9A) overlapped with the photo image (FIG. 9B) of the cell lines is shown between them. Then, green fluorescence expressed when adding citrate to the detection sensor inserted to the cell lines was observed. The image (FIG. 9D) after adding citrate, the photo image (FIG. 9E) thereof and their overlapped image (FIG. 9F) are shown in FIG. 9D to FIG. 9F.

Molecules are shown by their SMILES.

Consider `CC1(C)OB(c2ccc(-c3nc(-c4ccc(-c5nc(-c6ccccc6)c(-c6ccccc6)[nH]5)cc4)no3)cc2)OC1(C)C` [ARBD, 5-(4-(4,4,5,5-tetramethyl-1,3,2-dioxaborolan-2-yl)phenyl)-3-(4-(4,5-diphenyl-1H-imidazol-2-yl)phenyl)-1,2,4-oxadiazole], for which, in series [1], the Fluorescence quantum yield is recorded as 0.18, the “Maximum absorption wavelength (λabs)” value is recorded as 352 and the “Maximum emission wavelength (λemiss)” value is given as 458. The fluorescence emission wavelength in series [1] (citrate added, 2 μM ARBD, 10 mM HEPES buffer (2 vol % DMSO), pH 7.4, strong fluorescence, color change blue to green) is 548 nm. Moreover, in series [1] (sensor not subjected to reaction with citrate, weak (blue) fluorescence), the fluorescence emission wavelength came out at 458 nm. The “k (reaction rate constant)” value in series [2] worked out at 0.148 min⁻¹. Also, the “pH of highest and stable fluorescence intensity” value in series [3] (ARBD and citrate at different pH values) was 7-8 pH. Moreover, the “time to maximum value of fluorescence intensity” value in series [3] (citrate 0-0.9 μM) was no more than 15 min. For the same compound, the “stability of fluorescence intensity after reaction with citrate” value in series [3] (citrate 0-0.9 μM, whole concentration range) is listed as “maintained constantly to 60 minutes”. In addition, in series [4] (S/N=3, 2 μM ARBD), the “detection limit for citrate” value was found to be 10 nM. Besides, the “new absorption peak position on addition of citrate” value in series [4] (citrate 0 to 12 μM) turned out to be 400 nm. The compound further had an absorption peak in series [4] (initial stage, no citrate) of 346 nm. Moreover, the “selectivity: fluorescence enhancement by citrate versus other ions” value in series [5] (1 μM citrate, 0.5 mM fumarate, benzoate, glutamate, succinate, malonate, oxalate, acetate, phosphate, sulfite, sulfate) is “only citrate can induce fluorescence enhancement”. Besides, in series [5] (H2O2, glucose, fructose, sucrose, dopamine species, citrate emits green, H2O2 blue fluorescence), the “selectivity versus materials having a diol moiety” value is “reacts only with citrate and hydrogen peroxide”. Also, in series [5] (other species at least 500 times higher concentration than citrate), the “interference of other ionic compounds with detection of citrate” value was “no effect upon the detection of citrate”. Moreover, the “fluorescence in cells after adding citrate” value in the series with PC3 cells is reported as “reacts with citrate to express a green color”.
